Assays:
AMPKα = assay: AMPK-activating action in C2C12 muscle cells, AMPKα phosphorylation (Western blot); format: cell-based, murine; details: for Phospho-AMPKα: 60 minutes, C2C12, relative value to control defined as 100
Procedure: (§1) A muscle cell line (C2C12) was used to evaluate the AMPK-activating action of nootkatone according to the procedures below with AMPKα and AMPKβ phosphorylation as indexes.
Cells of the murine muscle cell line (C2C12) were seeded onto a 25 cm^2 flask and cultured in DMEM (+10% FBS, +antimicrobial agent) at 37° C. for 1 to 2 days. When the cells became confluent, the culture solution was removed, and the cells were washed with PBS (−) and further cultured for 7 to 8 days in fresh DMEM (2% (V/V) horse serum), which was in turn replaced by a fresh culture solution every 2 to 3 days. The culture solution was then removed, and the cells were washed with PBS (−) and further cultured in fresh DMEM (−FBS) for 1 day. After the removal of the culture solution, the cells were cultured in DMEM (−FBS) containing a predetermined concentration of nootkatone (obtained from Wako Pure Chemical Industries, Ltd.) for 60 minutes. After the culture solution was subsequently removed and the cells were washed with PBS (−), 200 μL of cell lysis solution (10 mmol/L Tris (pH 7.4), 50 mmol/L sodium chloride, 30 mmol/L sodium pyrophosphate, 0.5% (V/V) Triton X-100, protease inhibitor cocktail (SIGMA P2714), phosphatase inhibitor cocktail-1 (SIGMA P2850), phosphatase inhibitor cocktail-2 (SIGMA P5726)) was added and the cell lysis solution was collected with a cell scraper. The collected cell lysis solution was well homogenized by passing it through a syringe with a 23G needle three times and then left on ice for 30 minutes. The homogenate was centrifuged at 15000 r/min at 4° C. for 15 minutes, and the resulting supernatant protein was used in the measurement below.
(§2) The concentration of the supernatant protein was measured, and the protein concentrations were then adjusted among samples to constant concentrations. […]
(§3) Predetermined amounts (approximately 20 to 40 μg) of the samples for electrophoresis were subjected to SDS-PAGE (12% gel) and transferred to a membrane. Then, phospho-AMPKα and phospho-AMPKβ were detected by using anti-phospho-AMPKα ([…]) antibodies (manufactured by Cell Signaling Technology, Inc.) or anti-phospho-AMPKβ (Ser108) antibodies (manufactured by Cell Signaling Technology, Inc.) as primary antibodies, anti-rabbit-HRP antibodies (manufactured by Amersham Biosciences) as secondary antibodies, and Phototope-HRP Western Detection System (manufactured by Cell Signaling Technology, Inc.) as a detection reagent. The degree of AMPK activation was indicated as a relative value to that of a control (sample-free group) defined as 100 by digitizing (pixelizing) detected band strength by image analysis (EDAS290 image analysis system; KODAK).

AMPKβ = assay: AMPK-activating action in C2C12 muscle cells, AMPKβ phosphorylation (Western blot); format: cell-based, murine; details: 60 minutes, relative value to control defined as 100
Procedure: as §1
Cells of the murine muscle cell line (C2C12) were seeded onto a 25 cm^2 flask and cultured in DMEM (+10% FBS, +antimicrobial agent) at 37° C. for 1 to 2 days. When the cells became confluent, the culture solution was removed, and the cells were washed with PBS (−) and further cultured for 7 to 8 days in fresh DMEM (2% (V/V) horse serum), which was in turn replaced by a fresh culture solution every 2 to 3 days. The culture solution was then removed, and the cells were washed with PBS (−) and further cultured in fresh DMEM (−FBS) for 1 day. After the removal of the culture solution, the cells were cultured in DMEM (−FBS) containing a predetermined concentration of nootkatone (obtained from Wako Pure Chemical Industries, Ltd.) for 60 minutes. […]
as §2, §3

[1] = Antiobesity, antidiabetic and antilifestyle-related disease effects in C57BL/6 mice raised on high-fat diet; format: in vivo
Procedure: The antiobesity, antidiabetic, and antilifestyle-related disease effects of nootkatone were evaluated as described below.
Seven-week-old C57BL/6 male mice were divided into 3 groups each containing 10 mice and raised with each diet of the composition described in Table 2.
Twenty-two weeks later, their body weights were measured, while blood was collected from the mice under ether anesthesia and under non-fasting conditions to measure serum glucose, cholesterol, triglyceride, insulin, and leptin levels. The amount of visceral fat (epididymal fat, retroperitoneal fat, and perirenal fat) was also measured.

[2] = test system: lipid metabolism activity (β-oxidation activity); assay: Lipid metabolism activity (β-oxidation activity) of liver and skeletal muscle after oral administration; format: in vivo, mice
Procedure: Seven-week-old Balb/c male mice were divided into 2 groups, to which a physiological saline (control) or nootkatone at 200 mg/kg of body weight was then orally administered for 10 consecutive days. Then, their livers and skeletal muscles (gastrocnemius muscle+soleus muscle) were collected. The livers and skeletal muscles were respectively homogenized in a buffer (250 mM sucrose, 1 mM EDTA in 10 mM HEPES (pH 7.2)), and the insoluble tissue residues were removed by centrifugation to obtain supernatants. The obtained supernatants were measured for protein levels. The protein levels were adjusted among samples to constant levels, and the samples were used in the measurement of lipid metabolism activity (β-oxidation activity). A 100-μg aliquot of the supernatant protein was reacted at 37° C. for 20 minutes with 0.1 μCi [^14C]-palmitic acid in a buffer (50 mM Tris-HCl (pH 8.0), 40 mM NaCl, 2 mM KCl, 2 mM MgCl2, 1 mM DTT, 5 mM ATP, 0.2 mM L-carnitine, 0.2 mM NAD, 0.06 mM FAD, 0.12 mM CoA, 3 mM α-cyclodextrin) at the final volume of 200 μL. The reaction was terminated with 200 μL of 0.6 N perchloric acid, and the unreacted [^14C]-palmitic acid was removed 3 times with 1 mL hexane. Lipid-degrading activity was measured by measuring radioactivity of the aqueous layer.
The degree of the lipid-degrading activity was indicated as a relative value to that of the control defined as 100.

[3] = Endurance-enhancing and antifatigue effects, maximum swimming time of mice in a current water pool; format: in vivo; details: for Maximum swimming time: 7 L/min, Balb/c male mice
Procedure: The endurance-enhancing and antifatigue effects of nootkatone were evaluated as described below. Nootkatone used was a product of Avocado.
The endurance-enhancing and antifatigue effects were evaluated according to the measurement method of maximum swimming time of mice (Reference: Am J Physiol Regul Integr Comp Physiol, Vol. 288, R708-R715, 2005) in a current water pool. The experimental pool used was a clear acrylic pool (90 cm long×45 cm wide×45 cm deep) filled to a depth of 38 cm with water maintained at 34° C. with a heater. The current in the pool was generated with a pump (C-P60H, manufactured by Hitachi), and the current speed was adjusted by connecting Water flowmeter (Tofco) to the pump and opening and closing a valve. The current speed was measured with a digital current meter (SV-101-25S, Sankou Seimitsu Kogyo).
Experimental animals used were 5-week-old Balb/c male mice (Charles River Laboratories, Inc.). The mice were preliminarily raised for 1 week under a constant raising environment (23±2° C., light period: 7 a.m. to 7 p.m.) and acclimated. In subsequent 1-week training, the mice were accustomed to swimming exercise three times a week (subjected to swimming exercise for 30 minutes at a current speed of 5 L/min on the first day, and for 30 minutes at a current speed of 6 L/min on the third and fifth days). […] The mice were divided into 2 groups, a test diet group and a control diet group, each containing 8 mice, to prevent a difference in maximum swimming time between the groups. Diets prepared in the formulation composition shown in Table 8 were used to raise the mice for 10 weeks. During this period, the measurement of maximum swimming time (7 L/min) and training (6 L/min, 30 minutes) were performed once every week.

[4] = Group 3 (0.5% nootkatone), 22 weeks
[5] = Group 3: high-fat diet with 0.5% nootkatone, 22 weeks, C57BL/6 male mice
[6] = serum, non-fasting, Group 3: high-fat diet with 0.5% nootkatone, 22 weeks

For `C=C(C)[C@@H]1CCC2=CC(=O)C[C@@H](C)[C@]2(C)C1` (stereo in doubt) [Nootkatone, 4,4a,5,6,7,8-hexahydro-6-isopropenyl-4,4a-dimethyl-2(3H)-naphthalenone], the “AMPK-activating action in the muscle cells” value (AMPKα; C2C12, summary of Table 1) was “strong AMPK-activating action”, the Phospho-AMPKα (AMPKα; nootkatone 50 μmol/L) was 402 and the Phospho-AMPKα (AMPKα; nootkatone 100 μmol/L) was 952. For the same compound, the Phospho-AMPKα (AMPKα; nootkatone 150 μmol/L) was 1077, the Phospho-AMPKβ (AMPKβ; nootkatone 50 μmol/L) was 241 and the Phospho-AMPKβ (AMPKβ; nootkatone 100 μmol/L) was 314. For the same compound, the Phospho-AMPKβ (AMPKβ; nootkatone 150 μmol/L) was 358, the “Increment of body weights and amount of visceral fat” value ([1]; Group 3 (0.5% nootkatone) as compared with Group 2) was “remarkably reduced” and the “Effect on rise in blood cholesterol level” value [1, 4] was “excellent inhibitory effect”. The “Effect on rise in blood insulin level” value [1, 4] was “excellent inhibitory effect”, the “Effect on rise in blood leptin level” value [1, 4] was “excellent inhibitory effect” and the “Effect on rise in blood triglyceride level” value [1, 4] was “excellent inhibitory effect”. The “Effect on rise in blood-glucose level” value [1, 4] was “excellent inhibitory effect”, the Body weight [1, 5] was 30.4 g and the Epididymal fat [1, 5] was 0.47 g. The Perirenal fat [1, 5] was 0.07 g, the Retroperitoneal fat [1, 5] was 0.15 g and the Glucose [1, 6] was 212.3 mg/dL. It also gave an Insulin [1, 6] of 1.26 ng/mL, a Leptin [1, 6] of 6.2 ng/mL and a Total cholesterol [1, 6] of 131.3 mg/dL. For the same compound, the Triglyceride [1, 6] was 54.3 mg/dL, the “Lipid-degrading activity (β-oxidation activity), skeletal muscle” value ([2]; 200 mg/kg orally for 10 consecutive days, Balb/c male mice, gastrocnemius + soleus muscle, relative value to control defined as 100) was 271 and the “Lipid-degrading activity (β-oxidation activity), liver” value ([2]; 200 mg/kg orally for 10 consecutive days, Balb/c male mice, relative value to control defined as 100) was 273. For the same compound, the “Lipid-degrading activity (β-oxidation activity) of the liver and skeletal muscle” value ([2]; mice given nootkatone 200 mg/kg, 10 days, versus control) was “remarkably increased”, the Maximum swimming time ([3]; after 10 week raising on test diet with 0.2% nootkatone) was 40.01 ± 3.17 min and the Maximum swimming time ([3]; before raising (baseline of test diet group)) was 27.31 ± 1.72 min. The “Maximum swimming time after 10-week raising” value ([3]; test diet containing nootkatone as compared with the control diet group) was “significantly prolonged”.
